Results from patent US20240148895A1, “ANTIBODY-DRUG CONJUGATE” (Eisai R&D Management Co., Ltd., priority 2022, published 2024).

Test system: AsPC-1/Cas9 cell line (human pancreatic cancer cell line AsPC-1)
Experiment: AsPC-1/Cas9 growth inhibition assay
Type: cell-based
Conditions: 5 days culture, CellTiter Glo 2.0, read-out: IC50 (Absolute IC50, 50% inhibition of cell growth)
Procedure: Human pancreatic cancer cell line AsPC-1 (ATCC Number CRL1682) was infected with Edit-R Lentiviral hCMV-Blast-Cas9 Nuclease Particle (Dharmacon, VCAS10124) in the presence of 8 μg/ml of Hexadimethrine bromide (Sigma, H9268), and after 24 hours it was exposed to 10 μg/ml of Blastcidin S (Thermo, A11139) to remove the uninfected cells, thereby establishing an AsPC-1/Cas9 cell line. The cells were maintenance cultured in a 5% CO2 incubator (37° C.) using RPMI-1640 (FujiFilm-Wako Pure Chemical Industries) containing 10% fetal bovine serum (FBS: SIGMA 173012) and penicillin/streptomycin (FujiFilm-Wako Pure Chemical Industries) (hereunder referred to simply as “culture medium”). After adding 25 μL of AsPC-1/Cas9 cell suspension prepared to 3.2×10^4 cells/mL using culture medium into each well of a 384-well plate (Greiner 781091), the cells were cultured overnight in a 5% CO2 incubator (37° C.). On the following day, 25 μL of the test substance diluted with culture medium was added to each well, and culturing was continued for 5 days in a 5% CO2 incubator (37° C.). Next, 25 μL of CellTiter Glo™ 2.0 (Promega) was added to each well, and the plate contents were mixed for 5 minutes using a plate mixer. The plate was stationed for 10 minutes at room temperature while shielded from light, and then the luminous intensity was measured with an ENVISION™ (Perkin-Elmer). The luminescence value of the wells with addition of test substance was determined as a relative value, with 100% as the luminescence value of the wells with cells but without addition of the test substance and 0% as the luminescence value of the wells without cells. A plot of test substance concentration against luminescence value % approximated a 4-parameter logistic curve, and the test substance concentration necessary for 50% inhibition of cell growth (Absolute IC50) was calculated, and is shown in Table 10. In Table 10, the antibodies listed as “CEACAM6_#84.7” are the anti-CEACAM6 antibody of Example 301-1, the antibodies listed as “003” are the anti-folate receptor α antibody of Example 301-2, and the antibodies listed as “345A12” are the anti-mesothelin antibody of Example 301-3.
According the same method as in the AsPC-1/Cas9 growth inhibition assay described in Example 313 above, the test substance concentration necessary for 50% inhibition of cell growth (Absolute IC50) in the ADC described in Example 318 was calculated and is shown in Table 12.

Compound | IC50
2-Cyclopropoxy-2-(2-(4-(((2S,5R)-2,5-dimethylpiperazin-1-yl)methyl)piperidin-1-yl)-6-(4-methoxy-1-methyl-6-oxo-1,6-dihydropyridin-3-yl)quinazolin-4-yl)-2-phenylethyl methyl(2-(methylamino)ethyl)carbamate [Example 34] | 0.083 nM
4-(2-(4-Amino-4-methyl-[1,4′-bipiperidin]-1′-yl)-4-(1-cyclopropoxy-2-hydroxy-1-phenylethyl)quinazolin-6-yl)-6-methyl-1,6-dihydro-7H-pyrrolo[2,3-c]pyridin-7-one [Example 27] | < 0.015 nM
CCn1c(=O)nc(C(CO)(OC)c2ccccc2)c2cc(-c3cc(C)c(=O)n(C)c3)ccc21 (racemic) [Example 17, 6-(1,5-Dimethyl-6-oxo-1,6-dihydropyridin-3-yl)-1-ethyl-4-(2-hydroxy-1-methoxy-1-phenylethyl)quinazoline-2(1H)-one] | 0.04 nM
Cc1cc(-c2ccc3nc(NS(C)(=O)=O)nc(C(CO)(CC4CC4)c4ccccn4)c3c2)cn(C)c1=O (stereo not shown) [Example 5, N-(4-(1-Cyclopropyl-3-hydroxy-2-(pyridin-2-yl)propan-2-yl)-6-(1,5-dimethyl-6-oxo-1,6-dihydropyridin-3-yl)quinazolin-2-yl)methanesulfonamide] | 0.035 nM
Cc1cc(-c2ccc3nc(N=S(C)(C)=O)nc(C(CO)(CC4CCOCC4)c4ccccc4)c3c2)cn(C)c1=O (stereo not shown) [Example 6] | 0.029 nM
Cc1cc(-c2ccc3nc(N=S(C)(C)=O)nc(C(CO)(CC(C)C)c4ccccc4)c3c2)cn(C)c1=O (stereo not shown) [Example 7, 5-(2-((Dimethyl(oxo)-16-sulfanylidene)amino)-4-(1-hydroxy-4-methyl-2-phenylpentan-2-yl)quinazolin-6-yl)-1,3-dimethylpyridin-2(1H)-one] | 0.051 nM
Cc1cc(-c2ccc3nc(NS(C)(=O)=O)nc(C(CO)(CC4CCC4)c4ccccc4)c3c2)cn(C)c1=O (stereo not shown) [Example 8, N-(4-(1-Cyclobutyl-3-hydroxy-2-phenylpropan-2-yl)-6-(1,5-dimethyl-6-oxo-1,6-dihydropyridin-3-yl)quinazolin-2-yl)methanesulfonamide] | 0.043 nM
Cc1cc(-c2ccc3cc(N=S(C)(C)=O)nc(C(CO)(OC4CC4)c4ccccc4)c3c2)cn(C)c1=O (stereo not shown) [Example 9, 5-(1-(1-Cyclopropoxy-2-hydroxy-1-phenylethyl)-3-((dimethyl(oxo)-16-sulfanylidene)amino)isoquinolin-7-yl)-1,3-dimethylpyridin-2(1H)-one] | 0.075 nM
Cc1cc(-c2ccc3nc(NC(=O)N4CC(O)C4)nc(C(CO)(OC4CC4)c4ccccc4)c3c2)cn(C)c1=O (stereo not shown) [Example 10, N-(4-(1-Cyclopropoxy-2-hydroxy-1-phenylethyl)-6-(1,5-dimethyl-6-oxo-1,6-dihydropyridin-3-yl)quinazolin-2-yl)-3-hydroxyazetidine-1-carboxamide] | 0.036 nM
CCCC(CO)(c1ccccn1)c1[nH]c(=O)cc2ccc(-c3cc(C)c(=O)n(C)c3)cc12 (stereo not shown) [Example 11, 7-(1,5-Dimethyl-6-oxo-1,6-dihydropyridin-3-yl)-1-(1-hydroxy-2-(pyridin-2-yl)pentan-2-yl)isoquinoline-3(2H)-one] | 0.039 nM
CCOCCC(CO)(c1ccccn1)c1nc(N)nc2ccc(-c3cc(C)c(=O)n(C)c3)cc12 (stereo not shown) [Example 12, 5-(2-Amino-4-(4-ethoxy-1-hydroxy-2-(pyridin-2-yl)butan-2-yl)quinazolin-6-yl)-1,3-dimethylpyridin-2(1H)-one] | 0.038 nM
Cc1cc(-c2ccc3nc(N=S(C)(C)=O)nc(C(CO)(OC4CCC4)c4ccccc4)c3c2)cn(C)c1=O (stereo not shown) [Example 13, 5-(4-(1-Cyclobutoxy-2-hydroxy-1-phenylethyl)-2-((dimethyl (oxo)-16-sulfanylidene)amino)quinazolin-6-yl)-1,3-dimethylpyridin-2(1H)-one] | 0.043 nM
CN1CCC(Oc2nc(C(CO)(OC3CC3)c3ccccc3)c3cc(-c4cn(C)c(=O)c5c4COC5)ccc3n2)CC1 (stereo not shown) [Example 14, 7-(4-(1-Cyclopropoxy-2-hydroxy-1-phenylethyl)-2-((1-methylpiperidin-4-yl)oxy)quinazolin-6-yl)-5-methyl-3,5-dihydrofuro[3,4-c]pyridine-4(1H)-one] | 0.038 nM
Cc1cc(-c2ccc3nc(N)nc(C(CO)(OC4CC4)c4cccs4)c3c2)cn(C)c1=O (stereo not shown) [Example 15, 5-(2-Amino-4-(1-cyclopropoxy-2-hydroxy-1-(thiophen-2-yl)ethyl)quinazolin-6-yl)-1,3-dimethylpyridin-2(1H)-one] | 0.039 nM
CCOC(CO)(c1ccccc1)c1nc(C(N)=O)cc2ccc(-c3cc(C)c(=O)n(C)c3)cc12 (stereo not shown) [Example 16, 7-(1,5-Dimethyl-6-oxo-1,6-dihydropyridin-3-yl)-1-(1-ethoxy-2-hydroxy-1-phenylethyl)isoquinoline-3-carboxamide] | 0.035 nM
Cc1cc(-c2ccc3nc(CNS(C)(=O)=O)nc(C(CO)(OC4CC4)c4ccccc4)c3c2)cn(C)c1=O (stereo not shown) [Example 18, N-((4-(1-Cyclopropoxy-2-hydroxy-1-phenylethyl)-6-(1,5-dimethyl-6-oxo-1,6-dihydropyridin-3-yl)quinazolin-2-yl)methyl)methanesulfonamide] | 0.047 nM
Cc1cc(-c2ccc3nc(N=S(C)(C)=O)nc(C(CO)(OC(C)C)c4ccccc4)c3c2)cn(C)c1=O (stereo not shown) [Example 19, 5-(2-((Dimethyl(oxo)-16-sulfanylidene)amino)-4-(2-hydroxy-1-isopropoxy-1-phenylethyl)quinazolin-6-yl)-1,3-dimethylpyridin-2(1H)-one] | 0.031 nM
Cc1cc(-c2ccc3nc(N)nc(C(CO)(CC4CC4)c4cccnc4)c3c2)cn(C)c1=O (stereo not shown) [Example 20, 5-(2-Amino-4-(1-cyclopropyl-3-hydroxy-2-(pyridin-3-yl)propan-2-yl)quinazolin-6-yl)-1,3-dimethylpyridin-2(1H)-one] | 0.035 nM
COc1ccc(CC(CO)(c2ccccn2)c2nc(N=S(C)(C)=O)nc3ccc(-c4cc(C)c(=O)n(C)c4)cc23)cc1F (stereo not shown) [Example 21, 5-(2-((Dimethyl(oxo)-16-sulfanylidene)amino)-4-(1-(3-fluoro-4-methoxyphenyl)-3-hydroxy-2-(pyridin-2-yl)propan-2-yl)quinazolin-6-yl)-1,3-dimethylpyridin-2(1H)-one] | 0.061 nM
COCCC(CO)(c1ccccc1)c1nc(N=S(C)(C)=O)nc2ccc(-c3cc(C)c(=O)n(C)c3)cc12 (stereo not shown) [Example 22, 5-(2-((Dimethyl(oxo)-16-sulfanylidene)amino)-4-(1-hydroxy-4-methoxy-2-phenylbutan-2-yl)quinazolin-6-yl)-1,3-dimethylpyridin-2(1H)-one] | 1.6 nM
Cc1cc(-c2ccc3nc(N=S(C)(C)=O)nc(C(CO)(Cc4ccccc4)c4ccccc4)c3c2)cn(C)c1=O (stereo not shown) [Example 23, 5-(2-((Dimethyl(oxo)-16-sulfanylidene)amino)-4-(1-hydroxy-2,3-diphenylpropan-2-yl)quinazolin-6-yl)-1,3-dimethylpyridin-2(1H)-one] | 0.034 nM
Cc1cc(-c2ccc3nc(N)nc(C(CO)(Cc4ccccc4)c4ncccn4)c3c2)cn(C)c1=O (stereo not shown) [Example 24, 5-(2-Amino-4-(1-hydroxy-3-phenyl-2-(pyrimidin-2-yl)propan-2-yl)quinazolin-6-yl)-1,3-dimethylpyridin-2(1H)-one] | 0.043 nM
